Assay [1] concerns KB cells. Kind of assay: Cellular protein-DNA complex formation (potassium-SDS precipitation). The settings on record: high concentration (7.5-60 micromolar); one hour. Type of assay: cell-based. The protocol:
Stimulation of intracellular protein associated DNA breaks was measured using a standard assay method described in Y. Kashiwada et al., J. Pharm. Sci. 82:487 (1993). Briefly, KB cells were labeled overnight with tritiated thymidine (0.5 μCi/mL), chased for two hours and then treated in triplicate with test compounds at various concentrations. After one hour, samples were processed and protein-DNA complexes were measured as potassium-SDS precipitable radioactivity.

Assay [2] addresses T1, calf thymus DNA topoisomerase I (Bos taurus, UniProt F1MN93).
T1 construct: Calf thymus DNA topoisomerases were purchased from TopoGen Inc., Columbus, Ohio; purchased TopoGen Inc., Columbus, Ohio; host or cells: calf thymus (tissue-derived enzyme)
T1 sequence (F1MN93 1-767): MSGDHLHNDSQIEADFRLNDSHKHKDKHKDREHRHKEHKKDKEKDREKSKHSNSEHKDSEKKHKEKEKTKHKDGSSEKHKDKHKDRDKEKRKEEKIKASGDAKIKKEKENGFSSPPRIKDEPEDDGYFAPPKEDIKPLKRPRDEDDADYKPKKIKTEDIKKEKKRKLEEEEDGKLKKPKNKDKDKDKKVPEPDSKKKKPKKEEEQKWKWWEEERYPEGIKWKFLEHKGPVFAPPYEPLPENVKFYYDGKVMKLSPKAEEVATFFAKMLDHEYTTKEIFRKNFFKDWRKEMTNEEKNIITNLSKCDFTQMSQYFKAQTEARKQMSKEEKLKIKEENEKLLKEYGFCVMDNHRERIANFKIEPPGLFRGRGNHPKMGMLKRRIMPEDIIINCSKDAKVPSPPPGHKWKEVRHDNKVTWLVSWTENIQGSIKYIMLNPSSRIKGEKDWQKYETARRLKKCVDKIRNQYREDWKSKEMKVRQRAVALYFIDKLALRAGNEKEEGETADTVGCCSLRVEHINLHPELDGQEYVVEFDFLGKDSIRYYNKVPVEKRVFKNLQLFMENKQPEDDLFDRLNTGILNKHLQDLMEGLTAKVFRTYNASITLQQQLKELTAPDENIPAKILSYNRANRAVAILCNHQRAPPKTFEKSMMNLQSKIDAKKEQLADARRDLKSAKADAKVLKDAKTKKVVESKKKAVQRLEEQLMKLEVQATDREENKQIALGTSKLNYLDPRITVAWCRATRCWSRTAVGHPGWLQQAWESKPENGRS
Kind of assay: In vitro topoisomerase-DNA cleavage assay, topoisomerase I. Type of assay: biochemical. The source says:
Calf thymus DNA topoisomerases were purchased from TopoGen Inc., Columbus, Ohio. Tritium-labeled thymidine (60-90 ci/mmol) for labeling cellular DNA to measure protein-DNA complexes and αP^32-labeled deoxycytidine triphosphate (>3000 ci/mmol) were obtained from ICN Biochemicals Inc., Irvine, Calif. The latter radiochemical was used with a T4-DNA polymerase polymerase-labeling system from BRL Inc., Gaithersburg, Md., to prepare P^32-plasmid DNA for in vitro cleavage assays. Tissue culture reagents were purchased from Sigma Chemical Co., St. Louis, Mo., and Gibco-BRL Inc. All other chemicals were reagent grade.
The detailed method used to measure stimulation of cleavable complexes in vitro is described in K. Bastow et al., Planta Med. 59:195 (1993).. Briefly, incubated cleavage reactions containing one nanogram of P^32 end-labeled linearized PBR322 DNA, one unit of enzyme and test compound were divided equally for analysis. One portion was prepared for gel electrophoresis with subsequent autoradiography and protein-DNA complexes in the remaining sample were analyzed using the potassium-SDS precipitation method and scintillation spectrometry.

For assay [3], the system named is KB oral carcinoma cell line. In words: Cell growth inhibition, KB cells. It is filed as cell-based. As for the experimental part:
(§1) The KB oral carcinoma cell line was provided by M. Fisher (Pharmacology, UNC- Chapel Hill). The isolation and properties of the etoposide-resistant sub-clone, KB-7d, and the camptothecin-resistant line, KB-CPT100, were reported in P. Ferguson et al., Cancer Res. 48:5956 (1988) and D. Beidler et al., Cancer Res. 56:345 (1996), and are discussed briefly hereinafter. The vincristine-resistant sub-clone, KB-VIN20c was isolated by selection in 20 nM vincristine and over-expresses the P-glycoprotein multidrug-resistant drug-efflux protein (unpublished results).
(§2) All cell types were propagated in RPMI-1640 medium supplemented with 5% (v/v) fetal calf serum and 100 μg/mL kanamycin at 37° in a humidified atmosphere of 5% CO2 and 95% air. Over the course of the experiments, doubling times of cells were 24±4 hours.
(§3) Fifty thousand cells were plated in 25 cm^2 flasks (Falcon, N.J., USA) and incubated overnight. The medium was supplemented with test compounds at various concentrations and cultures were incubated for 48-51 hours (for about two cell doublings) before cells were trypsinized and then counted using a hemacytometer. The number of treated cells which excluded 0.5% (v/v) trypan blue were expressed as a percentage of the growth measured in control cultures. Compounds were evaluated in at least two independent experiments and the combined results were analyzed as scatter plots with dose-responses being computer fitted by linear regression at the 95% confidence level using Graphpad Software., San Diego, Calif. The IC50 concentrations which inhibited cell growth by fifty percent relative to control were interpolated from graphed results.

In assay [4] the test system is KB-VIN20c. Kind of assay: Cell growth inhibition, vincristine-resistant KB-VIN20c cells. Type of assay: cell-based. As to conditions: read-out: Cell Growth Inhibition IC50. The protocol:
as §1, §2, §3

Turning to `CC[C@@]1(O)C(=O)OCc2c1cc1n(c2=O)Cc2c-1nc1ccccc1c2/C=N/c1ccccc1N[C@@H]1c2cc3c(cc2[C@@H](c2cc(OC)c(O)c(OC)c2)[C@H]2C(=O)OC[C@@H]21)OCO3` [Compound S-2], the “intracellular protein-DNA complex formation, dose behaviour” value in assay [1] is reported as “not dose-inhibitory at high concentration”. Further, the “stimulation of topoisomerase I cleavage activity, dose behaviour” value in assay [2] (higher test concentrations) is “not inhibited at higher test concentrations”. In addition, the “cleavable complex formation with topoisomerase I” value in assay [2] (ten micromolar, FIG. 1A) is listed as “induced cleavable complexes”. Besides, the “topoisomerase I cleavable complex activity relative to unconjugated components” value in assay [2] (ten micromolar, S-1 vs 3, 4a, S-2 vs 3, 4b) is reported as “reduced about two-fold”. The “activity at inhibiting KB cell growth relative to C-1” value in assay [3] is given as “about ten-fold more active”. In addition, the half-inhibitory concentration (IC50) (in general, the concentration that inhibits the measured activity by half) in assay [3] (Homo sapiens, KB, read-out: Cell Growth Inhibition IC50) is 14 nM; in assay [4] it was 27 nM.

Values taken from US6420377B1, “Covalent conjugates of topoisomerase I and topoisomerase II inhibitors” (priority 1997, dated 2002).
